Several values for one entry are separate records, joined by “and”; a condition that tells them apart may be missing. Equal values may be shown once.
Legend:
Assay type in all cases: physicochemical
[1] = UV absorbance spectrum in solution (λmax, λcrit, extinction coefficients); settings: for λcrit: critical wavelength; for E (1%, 1 cm): mass extinction coefficient; for ε: molar extinction coefficient, in M-1 cm-1 (unit assumed)
Summary of the method: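 Spectra taken on 0.001% solutions in methanol, 10 mm path. Breakthrough is the wavelength where transmittance rises above 1%; steepness is the nm span over which transmittance goes from 1 to 80%.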

[2] = % transmission spectrum of 0.1% solution (breakthrough, steepness); settings: for Steepness: distance in nm over which transmittance increases from 1 to 80%; for Breakthrough (1% T at 0.1%): value in nm where transmittance increases beyond 1%, 0.1% solution
Summary of the method: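 Transmission was recorded for 0.1% methanol solutions in a 2 mm cuvette. Breakthrough is the wavelength (nm) at which transmittance exceeds 1%; steepness is the nm span over which transmittance rises from 1 to 80%. Some values are averages of multiple measurements.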

[3] = Photostability protocol: thin film irradiated with xenon arc lamp; settings: 1 hour xenon arc lamp, ratio of absorbance at λmax irradiated vs unirradiated, ^a = average of multiple measurements
Protocol: 1 mL of a 3% solution of the test compound (30 mg of test compound in 1 mL solvent) was prepared in a solvent mix made up of 50% EtOH and 25% capric/caprylic triglyceride and 25% C12-C15 alkyl benzoate. 50 μL of this solution (containing 1.5 mg of test compound) was added carefully to the centre of a glass microscope slide and the volatile components left to evaporate in the dark for at least 3 hours to give a liquid film. The prepared films were then exposed for 1 hour to an Eimac 150 W xenon arc lamp filtered through Pyrex (15 Amp supply current, samples 19 cm from the lamp) previously allowed to warm up for 15 minutes prior to sample exposure. The irradiation was performed in a fume cupboard where the air flow was sufficient to keep sample T<30° C. One hour's exposure represented a calculated radiation dose (using meter) of approximately 100 MED.
In order to calculate the photostability of the test compounds, the exposed slides were placed in a beaker and rinsed with 2×5 mL EtOH, 1×5 mL MeOH. The combined washings were then added to a 100 mL volumetric flask and made up to 100 mL total volume with methanol. The UV absorbance was then measured in a 10 mm cuvette. The percent stability is measured as the ratio of absorbance at λmax for the irradiated sample compared to the unirradiated sample.
The thin films are a good surrogate for testing the stability of a candidate in, for example, a sunscreen formulation as they use cosmetic emollients as solvent and are formed at cosmetically relevant concentrations.

| λmax [1] [nm] | λcrit [1] [nm] | E (1%, 1 cm) [1] | ε [1] | Steepness [2] [nm] | Breakthrough (1% T at 0.1%) [2] [nm] | Photostability [3] | SMILES |
| --- | --- | --- | --- | --- | --- | --- | --- |
| 310 | 342 | 844 | 23144 | 28 | 355 | 63% | CCN(/C=C(/C(=O)C(=O)N(C)C)c1ccccc1)CC [Compound 261] |
| 340 | 381 | 433 | 18791 | 46 | 403 | 20% | CCN(/C=C(/C(=O)c1ccc(S(=O)(=O)N(C)C)cc1)c1ccccc1)c1ccccc1 [Compound 264] |
| 366 | 389 | 940 | 32824 | 32 | 417 | 76% | CC(C)(C)OC(=O)C(=O)/C(=C/N1CCc2ccccc21)c1ccccc1 [Compound 267] |
| 312 | 360 | 656 | 18293 | 48 | 374 | 10% | CCN(/C=C(/C(=O)c1ccccc1)c1ccccc1)CC [Compound 268] |
| 374 | 391 | 1033 | 42074 | 26 | 419 | 94% and 94^a % and 98% and 91% | COC(=O)c1ccc2c(c1)CCN2/C=C(/C(=O)C(=O)OC(C)(C)C)c1ccccc1 [Compound 269] |
| 349 | 381 | 551 | 22023 | 35 | 400 | 89% | CC(C)(C)OC(=O)C(=O)/C(=C/N(c1ccccc1)c1ccccc1)c1ccccc1 [Compound 270] |
| 332 | 366 | 530 | 18592 | 36 | 381 | 75% | CCN(/C=C(/C(=O)C(=O)OC(C)(C)C)c1ccccc1)c1ccccc1 [Compound 271] |
| 362 | 386 | 887 | 30075 | 35 | 421 | 80% | Cc1ccc(C(=O)/C(=C/N2CCc3ccccc32)c2ccccc2)cc1 [Compound 272] |
| 336 | 376 | 614 | 20922 | 37 | 394 | 73% | CCN(/C=C(/C(=O)c1ccc(C)cc1)c1ccccc1)c1ccccc1 [Compound 273] |
| 353 | 384 | 420 | 16369 | 42 | 411 | 76% | Cc1ccc(C(=O)/C(=C/N(c2ccccc2)c2ccccc2)c2ccccc2)cc1 [Compound 274] |
| 358 | 383 | 1074 | 38139 | 30 | 406 | 56% | COc1ccccc1C(=O)/C(=C/N1CCc2ccccc21)c1ccccc1 [Compound 275] |
| 327 | 366 | 711 | 25385 | 40 | 379 | 56% | CCN(/C=C(/C(=O)c1ccccc1OC)c1ccccc1)c1ccccc1 [Compound 276] |
| 365 | 388 | 872 | 34350 | 26 | 414 | 95% | O=C(C(=O)N1CCc2ccccc21)/C(=C/N1CCc2ccccc21)c1ccccc1 [Compound 277] |
| 372 | 391 | 953 | 44118 | 30 | 418 | 88% | CCCCC(CC)COC(=O)C(=O)/C(=C/N1CCc2cc(C(=O)OC)ccc21)c1ccccc1 (stereo not drawn) [Compound 278] |
| 368 | 386 | 1304 | 58842 | 32 | 412 | 32% | COC(=O)c1ccc2c(c1)CCN2/C=C(/C(=O)C(=O)OC(C)(C)C(=O)OC)c1ccccc1 [Compound 279] |
| 357 | 370 | 1440 | 67567 | 21 | 384 | 68% | COC(=O)c1ccc2c(c1)CCN2/C=C(/C(=O)C(=O)OC(C)(C)c1ccccc1)c1ccccc1 [Compound 280] |
| 368 | 382 | 1427 | 60650 | 23 | 402 | 89% and 91% | COC(=O)c1ccc2c(c1)CCN2C=C(C(=O)c1c(C)cc(C)cc1C)c1ccccc1 [Compound 282] |
| 367 | 384 | 1339 | 48637 | 16 | 401 | 87% and 88% | COC(=O)c1ccc2c(c1)CCN2/C=C(/C(=O)C(C)(C)C)c1ccccc1 [Compound 283] |
| 345 | 378 | 666 | 27034 | 34 | 398 | 76% | COc1ccccc1C(=O)/C(=C/N(c1ccccc1)c1ccccc1)c1ccccc1 [Compound 285] |
| 373 | 389 | 1007 | 44238 | 35 | 425 | 76% | COC(=O)c1ccc2c(c1)CCN2/C=C(/C(=O)c1ccc(C(C)(C)C)cc1)c1ccccc1 [Compound 287] |
| 357 | 370 | 1405 | 59157 | 18 | 381 | 78% | CCC(CC)(CC)OC(=O)/C(=C/N1CCc2cc(C(=O)OC)ccc21)c1ccccc1 [Compound 289] |
| 370 | 389 | 1260 | 51191 | 22 | 412 | 53% | CCN(CC)C(=O)C(=O)/C(=C/N1CCc2cc(C(=O)OC)ccc21)c1ccccc1 [Compound 290] |
| 368 | 385 | 1307 | 49288 | 16 | 402 | 68% | COC(=O)c1ccc2c(c1)CCN2C=C(C(=O)C(C)(C)C)c1ccc(C)cc1 [Compound 295] |
| 368 | 384 | 1213 | 50838 | 16 | 401 | 73% | COC(=O)c1ccc2c(c1)CCN2C=C(C(=O)C(C)(C)C)c1ccc(C(C)(C)C)cc1 [Compound 296] |
| 367 | 384 | 1189 | 54826 | 16 | 400 | 81% and 83% | CCCCC(CC)COC(=O)c1ccc2c(c1)CCN2C=C(C(=O)C(C)(C)C)c1ccccc1 (stereo not drawn) [Compound 300] |
| 369 | 382 | 1164 | 60921 | 24 | 399 | 94% and 93% | CCCCC(CC)COC(=O)c1ccc2c(c1)CCN2C=C(C(=O)c1c(C)cc(C)cc1C)c1ccccc1 (stereo not drawn) [Compound 303] |

| SMILES | λmax [1] [nm] | λcrit [1] [nm] | E (1%, 1 cm) [1] | ε [1] | Steepness [2] [nm] | Breakthrough (1% T at 0.1%) [2] [nm] | Photostability [3] |
| --- | --- | --- | --- | --- | --- | --- | --- |
| COC(=O)c1ccc2c(c1)CCN2/C=C(/C(=O)c1ccccc1O[Si](C)(C)C(C)(C)C)c1ccccc1 [Compound 302] | 369 | 384 | 1089 | 55852 | 26 | 01 | 45% |
